Experimental data published in ChEMBL document CHEMBL1201862, “PubChem BioAssay data set” (2004).
Active and inactive are the calls of the source.

How the values were obtained:
Prothrombin = Prothrombin (Homo sapiens, UniProt P00734); experiment: Thrombin 1536 HTS Dose Response Confirmation. [Related pubchem assays: 1046 (Thrombin 1536 HTS; hits were confirmed in this assay)]; format: functional
HeLa = experiment: ATP-based viability loss in HeLa cells – cell-based, CellTiter-Glo luminescence, cherry-pick samples, cytotoxicity control for MITF activator project, dose response (AID 540259); format: functional; details: Homo sapiens
[1] = biological target: T1, Tyrosine-protein phosphatase non-receptor type 7 (Homo sapiens, UniProt P35236); experiment: HePTP tyrosine phosphatase activity blockers – biochemical, absorbance, leukemia target, primary screen (AID 521); format: functional
T1 sequence (P35236 whole entry): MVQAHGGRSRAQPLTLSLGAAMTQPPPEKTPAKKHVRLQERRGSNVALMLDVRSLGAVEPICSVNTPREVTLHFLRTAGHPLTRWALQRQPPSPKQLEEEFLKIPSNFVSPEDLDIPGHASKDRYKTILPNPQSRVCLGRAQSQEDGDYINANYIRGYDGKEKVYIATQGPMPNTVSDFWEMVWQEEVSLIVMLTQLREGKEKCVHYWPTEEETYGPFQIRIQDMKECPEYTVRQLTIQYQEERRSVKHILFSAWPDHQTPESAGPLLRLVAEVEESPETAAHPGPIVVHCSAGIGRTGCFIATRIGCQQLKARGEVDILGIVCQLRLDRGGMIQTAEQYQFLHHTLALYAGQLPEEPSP

[2] = biological target: Eukaryotic translation initiation factor 4E (Mus musculus, UniProt P63073); experiment: blockers of eIF4G binding by eIF4E – biochemical, TR-FRET, dose response (AID 855); format: functional;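 further: potency for disrupting eIF4E binding to eIF4GI seen as loss of FRET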
Cytochrome P450 2C19 = Cytochrome P450 2C19 (Homo sapiens, UniProt P33261); experiment: Cytochrome panel assay with activity outcomes. Panel member name: p450-cyp2c19 Compounds with AC50 equal or less than 10 uM are considered active; format: functional
Cytochrome P450 3A4 [3] = biological target: T2, Cytochrome P450 3A4 (Homo sapiens, UniProt P08684);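 further: CYP3A4 tested as one member of a cytochrome P450 panel screen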
Cytochrome P450 2C9 = Cytochrome P450 2C9 (Homo sapiens, UniProt P11712)
[4] = biological target: T3, Microphthalmia-associated transcription factor (Homo sapiens, UniProt O75030); experiment: reducers of TRPM1 reporter luminescence, concentration series – cell-based, SK-MEL-5, cherry-picked, set 3, MITF inhibitor project, dose response (AID 493073); format: functional;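 further: SK-MEL-5 melanoma cells with luciferase driven by the MITF target TRPM1 promoter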
T3 sequence (O75030 whole entry): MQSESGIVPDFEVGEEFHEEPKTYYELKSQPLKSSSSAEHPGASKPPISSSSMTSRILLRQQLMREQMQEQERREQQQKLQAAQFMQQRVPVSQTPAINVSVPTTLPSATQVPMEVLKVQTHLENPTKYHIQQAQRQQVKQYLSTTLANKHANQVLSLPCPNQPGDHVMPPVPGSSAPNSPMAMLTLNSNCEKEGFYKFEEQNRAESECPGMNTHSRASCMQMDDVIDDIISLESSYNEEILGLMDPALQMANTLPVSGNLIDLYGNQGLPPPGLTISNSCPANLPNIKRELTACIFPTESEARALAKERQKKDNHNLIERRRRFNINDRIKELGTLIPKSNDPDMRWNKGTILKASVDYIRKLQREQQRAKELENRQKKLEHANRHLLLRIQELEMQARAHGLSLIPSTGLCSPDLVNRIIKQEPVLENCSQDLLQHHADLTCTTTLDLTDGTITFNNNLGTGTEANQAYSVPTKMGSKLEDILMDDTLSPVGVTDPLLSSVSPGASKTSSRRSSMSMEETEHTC

[5] = decrease of insulin promoter-GFP reporter – imaging, high-content screening, mouse beta cells (AID 1628); format: functional; details: MIN6
INS1 = experiment: INS-1E survival protection against cytokine death – cell-based, luminescence, retest, dose response (AID 449756); format: functional; details: Rattus norvegicus;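 further: cell death triggered by IL-1 beta plus TNF-alpha plus IFN-gamma mixture; protective hits raise ATP signal compared with cytokine alone wells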
[6] = MIN6 cell viability loss – mouse insulinoma, cytotoxicity control, dose response (AID 2122); format: functional;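 further: confirmatory high-throughput counterscreen run to flag cytotoxic compounds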
Vero [7] = experiment: cells; format: functional, cell-based; details: Chlorocebus sabaeus
Vero [8] = experiment: cells; format: functional; details: Chlorocebus sabaeus
Streptococcus = experiment: GAS UMAA2166 growth inhibition – luminescence, BacTiterGlo, counter-screen for streptokinase expression inhibitor project, dose response (AID 1915); format: functional, organism-based;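 further: potency for reduction of bacterial viability or growth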
[9] = test system: Streptococcus sp. 'group A'; experiment: Streptococcus pyogenes SK(-)GAS viability under kanamycin – luminescence, BacTiterGlo, confirmation, counter-screen for streptokinase expression inhibitor project, dose response (AID 1900); format: functional, organism-based
[10] = biological target: T4, Heat shock factor protein 1 (Mus musculus, UniProt P38532); experiment: enhancement of HSF1-driven luciferase signal – cell-based, NIH3T3, luminescence, dose retest, confirmation (AID 435004); format: functional;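 further: stress induced by proteasome inhibitor MG132 added 30 min after compound; luciferase reporter driven by HSF1 response element in NIH3T3 cells; actives raise luminescence as potentiators of the MG132 stress response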
T4 sequence (P38532 whole entry): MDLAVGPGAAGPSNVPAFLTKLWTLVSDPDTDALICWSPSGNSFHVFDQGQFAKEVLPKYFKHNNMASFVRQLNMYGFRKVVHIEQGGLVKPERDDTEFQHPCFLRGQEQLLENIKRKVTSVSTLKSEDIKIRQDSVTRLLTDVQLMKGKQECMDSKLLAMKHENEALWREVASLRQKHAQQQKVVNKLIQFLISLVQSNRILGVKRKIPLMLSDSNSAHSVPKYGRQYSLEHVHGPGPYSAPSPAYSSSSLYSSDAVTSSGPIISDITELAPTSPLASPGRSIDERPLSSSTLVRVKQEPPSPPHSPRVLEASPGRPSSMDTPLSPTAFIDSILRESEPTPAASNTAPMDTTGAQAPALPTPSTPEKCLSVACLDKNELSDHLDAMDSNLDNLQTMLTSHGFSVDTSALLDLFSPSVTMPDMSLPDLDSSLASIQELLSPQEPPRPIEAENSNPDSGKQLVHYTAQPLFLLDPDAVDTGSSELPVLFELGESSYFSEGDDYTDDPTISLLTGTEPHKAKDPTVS

[11] = biological target: T5, Polyadenylate-binding protein 1 (Homo sapiens, UniProt P11940); experiment: MLLE domain peptide-binding blockers, IC50 – biochemical, fluorescence polarization, FITC-PAM2 peptide, dose response (AID 602259); format: functional; details: read-out: IC50_Mean
[12] = biological target: T5, Polyadenylate-binding protein 1; experiment: MLLE binding blockers, Cy5 peptide tracer – biochemical, fluorescence polarization, Cy5-PAM2 peptide, secondary, miRNA deadenylation inhibitor project, dose response (AID 602260); format: functional; details: read-out: IC50_Mean
Cytochrome P450 3A4 [13] = biological target: T2, Cytochrome P450 3A4; remark: listed apart in the source
Cytochrome P450 2D6 = Cytochrome P450 2D6 (Homo sapiens, UniProt P10635);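 further: CYP2D6 member of a cytochrome P450 panel assay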
Sequence of Cytochrome P450 2D6 (P10635 whole entry): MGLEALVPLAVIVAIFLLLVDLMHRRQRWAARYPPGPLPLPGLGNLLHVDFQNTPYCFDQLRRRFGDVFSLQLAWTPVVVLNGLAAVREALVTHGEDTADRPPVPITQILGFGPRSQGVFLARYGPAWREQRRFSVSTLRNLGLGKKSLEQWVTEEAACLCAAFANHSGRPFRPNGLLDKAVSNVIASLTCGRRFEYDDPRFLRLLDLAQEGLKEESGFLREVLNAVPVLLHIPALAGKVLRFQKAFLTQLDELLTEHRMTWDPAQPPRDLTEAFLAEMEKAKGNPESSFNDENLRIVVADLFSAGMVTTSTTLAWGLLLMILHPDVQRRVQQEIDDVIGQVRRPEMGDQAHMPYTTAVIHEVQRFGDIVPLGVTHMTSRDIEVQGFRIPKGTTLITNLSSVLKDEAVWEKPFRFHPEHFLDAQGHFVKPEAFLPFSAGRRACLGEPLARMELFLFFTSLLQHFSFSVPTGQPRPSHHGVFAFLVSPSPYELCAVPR

T2 sequence (P08684 whole entry): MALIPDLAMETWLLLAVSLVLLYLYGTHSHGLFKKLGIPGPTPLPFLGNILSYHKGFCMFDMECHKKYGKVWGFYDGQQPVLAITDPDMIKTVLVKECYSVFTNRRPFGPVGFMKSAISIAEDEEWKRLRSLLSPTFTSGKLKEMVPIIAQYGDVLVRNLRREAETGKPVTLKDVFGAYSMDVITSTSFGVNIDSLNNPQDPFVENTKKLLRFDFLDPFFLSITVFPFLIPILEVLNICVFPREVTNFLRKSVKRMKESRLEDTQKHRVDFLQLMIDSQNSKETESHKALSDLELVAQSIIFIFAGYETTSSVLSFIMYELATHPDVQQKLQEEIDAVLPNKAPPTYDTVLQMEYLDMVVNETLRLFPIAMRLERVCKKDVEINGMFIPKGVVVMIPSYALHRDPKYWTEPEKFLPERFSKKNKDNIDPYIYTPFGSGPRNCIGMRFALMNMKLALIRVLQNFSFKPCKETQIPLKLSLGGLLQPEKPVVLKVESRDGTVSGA
Sequence of Cytochrome P450 2C9 (P11712 whole entry): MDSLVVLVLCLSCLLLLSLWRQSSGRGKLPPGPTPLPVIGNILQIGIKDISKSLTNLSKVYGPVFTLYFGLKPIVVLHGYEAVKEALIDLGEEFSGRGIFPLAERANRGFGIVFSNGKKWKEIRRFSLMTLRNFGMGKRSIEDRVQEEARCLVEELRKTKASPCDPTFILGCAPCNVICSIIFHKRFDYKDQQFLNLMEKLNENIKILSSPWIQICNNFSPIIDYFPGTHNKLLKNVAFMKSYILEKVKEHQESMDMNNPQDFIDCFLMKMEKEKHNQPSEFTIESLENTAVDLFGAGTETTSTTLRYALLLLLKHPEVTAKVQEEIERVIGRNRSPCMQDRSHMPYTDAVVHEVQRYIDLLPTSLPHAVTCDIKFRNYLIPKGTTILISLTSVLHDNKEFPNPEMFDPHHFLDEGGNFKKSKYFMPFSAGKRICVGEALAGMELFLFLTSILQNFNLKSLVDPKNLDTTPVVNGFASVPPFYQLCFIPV
T5 sequence (P11940 whole entry, the tested form may be a part): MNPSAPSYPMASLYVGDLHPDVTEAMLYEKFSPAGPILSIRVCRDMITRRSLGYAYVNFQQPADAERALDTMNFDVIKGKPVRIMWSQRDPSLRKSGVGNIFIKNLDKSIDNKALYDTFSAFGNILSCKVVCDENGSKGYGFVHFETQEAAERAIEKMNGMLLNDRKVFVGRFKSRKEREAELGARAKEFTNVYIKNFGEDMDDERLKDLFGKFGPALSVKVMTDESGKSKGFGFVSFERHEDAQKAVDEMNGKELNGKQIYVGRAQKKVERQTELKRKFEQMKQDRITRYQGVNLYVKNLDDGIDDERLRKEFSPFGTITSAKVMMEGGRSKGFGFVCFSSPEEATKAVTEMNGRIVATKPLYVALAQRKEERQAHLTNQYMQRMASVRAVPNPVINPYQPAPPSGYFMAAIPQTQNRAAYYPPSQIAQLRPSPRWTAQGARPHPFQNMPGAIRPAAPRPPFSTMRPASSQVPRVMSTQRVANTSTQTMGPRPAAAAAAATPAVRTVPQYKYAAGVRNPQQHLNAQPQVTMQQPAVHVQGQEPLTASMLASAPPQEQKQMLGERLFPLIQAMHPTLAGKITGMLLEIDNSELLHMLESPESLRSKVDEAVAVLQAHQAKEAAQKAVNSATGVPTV
Sequence of Cytochrome P450 2C19 (P33261 whole entry): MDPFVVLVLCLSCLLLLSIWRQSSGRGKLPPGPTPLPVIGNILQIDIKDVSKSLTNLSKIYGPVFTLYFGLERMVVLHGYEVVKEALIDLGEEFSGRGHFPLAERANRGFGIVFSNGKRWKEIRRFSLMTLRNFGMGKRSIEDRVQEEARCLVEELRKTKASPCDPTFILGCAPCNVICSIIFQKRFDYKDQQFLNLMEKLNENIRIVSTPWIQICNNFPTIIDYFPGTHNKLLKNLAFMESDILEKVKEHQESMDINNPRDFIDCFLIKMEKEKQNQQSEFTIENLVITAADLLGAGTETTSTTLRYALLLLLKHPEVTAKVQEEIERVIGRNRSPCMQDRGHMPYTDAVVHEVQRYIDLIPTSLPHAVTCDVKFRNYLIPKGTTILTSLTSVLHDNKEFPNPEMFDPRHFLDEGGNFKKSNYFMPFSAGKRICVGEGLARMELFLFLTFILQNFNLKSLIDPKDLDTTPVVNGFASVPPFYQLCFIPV
Sequence of Eukaryotic translation initiation factor 4E (P63073 whole entry): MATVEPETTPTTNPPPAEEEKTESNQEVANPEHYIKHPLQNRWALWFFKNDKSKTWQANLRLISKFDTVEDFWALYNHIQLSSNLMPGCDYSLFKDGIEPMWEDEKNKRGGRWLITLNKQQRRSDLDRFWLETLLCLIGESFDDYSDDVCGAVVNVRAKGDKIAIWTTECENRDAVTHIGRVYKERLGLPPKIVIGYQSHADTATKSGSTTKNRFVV

CCCCOC(=O)Sc1nc2ccccc2o1
IC50 (Prothrombin): 3.11 µM (active)

Cc1cc2ncc(-c3ccc(Cl)cc3)c(N)n2n1
AC50 (HeLa): 68.3 µM (active)

COc1ccc2c3ncn(CC4CCCO4)c(O)c-3nc2c1 (configuration not stated)
IC50 [1]: > 100 µM (not active)

COC(=O)n1c(=S)oc2cc(Cl)ccc21
IC50 [2]: > 64 µM (inactive)

CCC1Oc2ccccc2N(CC(=O)NCCCN2CCCCC2C)C1=O (configuration not stated)
AC50 (Cytochrome P450 2C19): 2.24 µM (inconclusive) | AC50 (Cytochrome P450 3A4 [3]): 20 µM (inconclusive) | AC50 (Cytochrome P450 2C9): inconclusive

CC(O)(CS(=O)(=O)c1cccc(C(F)(F)F)c1)C(=O)Nc1cccc(C(F)(F)F)c1 (configuration not stated)
AC50 (Cytochrome P450 2C9): inconclusive

O=[N+]([O-])c1cccc2c(N3CCCC3)ccnc12
AC50 [4]: 2.47 µM (active) | IC50 [5]: 2.41 µM (active) | AC50 (INS1): 3.17 µM (active) | IC50 [6]: 1.18 µM (active)

COc1ccc(CC(=O)NC(=S)NNC(=O)COc2c(C)cccc2C)cc1
IC50 (Vero [7]): 11.4 µM (active) | CC50 (Vero [8]): > 25 µM (active) | EC50 (Streptococcus): 6.88 µM (active) | EC50 [9]: 0.124 µM (active)

CCN(CC)S(=O)(=O)c1ccc(C)c(NC(S)=Nc2cccc(S(=O)(=O)N3CCCCCC3)c2)c1
IC50 (Vero [7]): > 25 µM (active) | CC50 (Vero [8]): 18.7 µM (active) | EC50 [10]: > 260 µM (inactive) | IC50 [11]: > 66 µM (inactive) | IC50 [12]: > 66 µM (inactive)

CC(C)(C)c1ccc(OCC(=O)NNC(=O)CCc2ccccc2)cc1
AC50 (Cytochrome P450 2C19): 14.1 µM (inconclusive) | AC50 (Cytochrome P450 2C9): inconclusive | AC50 (Cytochrome P450 3A4 [13]): inconclusive

CCCC(=O)Nc1ccc(C(=O)Nc2cc(C(F)(F)F)ccc2Cl)cc1
AC50 (Cytochrome P450 3A4 [3]): 15.8 µM (inconclusive) | AC50 (Cytochrome P450 2C9): inconclusive | AC50 (Cytochrome P450 2D6): 8.91 µM (inconclusive)
